According to publication PMC12615753, “Glutathione as a taste modulator: molecular mechanisms of interaction with umami and sweet taste receptors” (Food Chemistry: Molecular Sciences, 2025):

Target: T1, hTAS1R1 Q278Y/rTAS1R3 (Homo sapiens, UniProt Q7RTX1, Q278Y)
T1 construct: expressed in transfected cells; host or cells: HEK293T/17 (ATCC CRL-11268)
T1 sequence (Q7RTX1 21-841 Q278Y): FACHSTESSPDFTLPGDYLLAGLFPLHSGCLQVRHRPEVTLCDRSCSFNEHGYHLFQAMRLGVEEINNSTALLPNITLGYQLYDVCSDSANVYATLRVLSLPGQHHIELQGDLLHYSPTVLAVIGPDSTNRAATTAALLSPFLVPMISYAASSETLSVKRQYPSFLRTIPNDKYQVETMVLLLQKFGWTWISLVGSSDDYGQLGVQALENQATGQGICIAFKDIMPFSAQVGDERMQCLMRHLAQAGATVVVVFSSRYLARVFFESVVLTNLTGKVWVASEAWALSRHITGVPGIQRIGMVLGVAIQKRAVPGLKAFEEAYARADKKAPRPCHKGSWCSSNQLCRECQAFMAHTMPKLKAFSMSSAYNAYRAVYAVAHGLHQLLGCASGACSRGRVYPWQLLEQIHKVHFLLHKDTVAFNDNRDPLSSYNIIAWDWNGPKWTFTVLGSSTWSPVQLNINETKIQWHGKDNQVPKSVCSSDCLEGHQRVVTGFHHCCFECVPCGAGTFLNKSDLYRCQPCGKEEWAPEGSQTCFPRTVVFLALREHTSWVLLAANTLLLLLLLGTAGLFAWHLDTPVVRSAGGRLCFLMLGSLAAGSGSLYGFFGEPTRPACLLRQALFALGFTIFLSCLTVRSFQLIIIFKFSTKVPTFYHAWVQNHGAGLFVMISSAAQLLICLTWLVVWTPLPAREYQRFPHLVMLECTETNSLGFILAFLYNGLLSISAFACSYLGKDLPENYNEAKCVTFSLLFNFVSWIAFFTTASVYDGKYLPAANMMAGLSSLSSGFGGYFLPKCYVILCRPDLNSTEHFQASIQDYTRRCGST
T1 sequence (Q923K1 21-858 partner): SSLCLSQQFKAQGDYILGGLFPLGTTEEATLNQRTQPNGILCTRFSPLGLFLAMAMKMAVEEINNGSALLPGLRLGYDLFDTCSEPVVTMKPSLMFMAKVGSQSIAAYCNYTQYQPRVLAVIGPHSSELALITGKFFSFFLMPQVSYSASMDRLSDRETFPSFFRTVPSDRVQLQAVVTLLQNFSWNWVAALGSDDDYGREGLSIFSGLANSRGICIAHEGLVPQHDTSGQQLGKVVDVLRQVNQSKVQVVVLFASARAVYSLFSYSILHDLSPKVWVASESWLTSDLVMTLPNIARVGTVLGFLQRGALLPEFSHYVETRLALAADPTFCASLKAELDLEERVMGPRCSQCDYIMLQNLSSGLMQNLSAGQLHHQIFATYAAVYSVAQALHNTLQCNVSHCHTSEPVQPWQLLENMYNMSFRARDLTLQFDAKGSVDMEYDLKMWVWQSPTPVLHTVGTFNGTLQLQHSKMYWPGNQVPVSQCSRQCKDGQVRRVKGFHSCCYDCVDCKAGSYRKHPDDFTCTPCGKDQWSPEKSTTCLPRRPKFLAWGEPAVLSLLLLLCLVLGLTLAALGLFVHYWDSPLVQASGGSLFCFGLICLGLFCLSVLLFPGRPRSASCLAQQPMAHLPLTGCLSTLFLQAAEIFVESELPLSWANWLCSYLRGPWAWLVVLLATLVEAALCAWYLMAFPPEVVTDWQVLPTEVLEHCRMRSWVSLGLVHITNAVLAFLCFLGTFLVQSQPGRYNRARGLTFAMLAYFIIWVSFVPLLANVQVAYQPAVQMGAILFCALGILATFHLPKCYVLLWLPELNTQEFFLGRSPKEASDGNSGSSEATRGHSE
Test: Calcium assay, hTAS1R1 mutant co-expressed with rTAS1R3
Assay type: cell-based, rat
Excerpt: Chimeric Gα proteins, such as Gα16Gust44, Gα16Gi3 or Gα15i2, are widely used in the functional expression of TAS1R receptors ([Backes et al., 2015]; [Suess et al., 2015]; [Toda et al., 2021], [Toda et al., 2013], [Toda et al., 2018]; [Zhang et al., 2008]). Chimeric Gα15i2 (([Toda et al., 2013]), Supplementary data) was generated by replacing the last five residues of the C-terminal tail of rat Gα15i2 (EINLL) (UniProt number G3V6N8; https://www.uniprot.org/uniprot/) with the counterpart sequence from human GNAI2 (DCGLF) (UniProt number P04899-1) and cloning into the pcDNA3.1/Hygro vector (Invitrogen, Thermo Fisher Scientific, Illkirch, France) between the HindIII and NotI restriction sites, resulting in the plasmid pcDNA3.1-Gα15i2. Chimeric Gα16Gust44 construct have already been reported ([Raliou et al., 2011]). Briefly, Gα16Gust44 was generated by replacing the C-terminal of Gα16 with the C-terminal 44 residues of gustducin. As previously described, hTAS1R1 was amplified from human fungiform papillae cDNA and cloned and inserted into pcDNA3 (Invitrogen), generating pcDNA3-TAS1R1-WT (wild-type) ([Raliou et al., 2011]). […] The cDNA coding region of rTAS1R3 was synthesized with optimized-codon usage for human expression (Genewiz) and was cloned and inserted into the mammalian pcDNA4/myc-HisA (Invitrogen) expression vector between the EcoRI and NotI restriction sites, resulting in the plasmid pcDNA4-rTAS1R3. […] The sequence integrity of all the plasmid constructs was verified via automated DNA sequencing (Genewiz).
The hTAS1R1 mutants were co-expressed with the rTAS1R3 subunit in HEK293 cells. […] As a control, the functionality of the mutated receptors was checked after stimulation with S807 (Fig. S8), which interacts with TAS1R1-TMD ([Zhang et al., 2008]).

Structure (SMILES) | EC50 | effect of the added compound (1 mM) on the response to L-Glu (Q278Y) | Max ∆F/F0 (Q278Y, GSH) | R1 = mutant EC50/WT EC50 (Q278Y, GSH) | response to the agonist alone, vs WT (Q278Y)
N[C@@H](CCC(=O)N[C@@H](CS)C(=O)NCC(=O)O)C(=O)O [GSH, γ-L-glutamyl-L-cysteinyl-glycine] | 3.96 ± 1.76 mM | synergy was observed | 0.47 ± 0.07 | 1.6 | –
CCCC(CCC)NC(=O)c1ccc2c(c1)OCO2 [S807, N-(heptan-4-yl)benzo[d][1,3]dioxole-5-carboxamide, reference compound] | – | – | – | – | strongly affected
